Laboratory results published in PMC4826872, “Underlying Resistance Mechanisms in the Cynosurus echinatus Biotype to Acetyl CoA Carboxylase-Inhibiting Herbicides” (Frontiers in Plant Science, 2016).
Like-named read-outs stand apart in the source and are kept apart here.

Biological target: T1, ACCase (chloroplastic acetyl coenzyme A carboxylase)
T1 construct: plastid and cytosolic forms not separated; S biotype has Arg1789, Met2065, Gly2067, Val2077
Test: NaH14CO3 incorporation into acid-stable product (malonyl-CoA)
Assay type: biochemical, Cynosurus echinatus
Conditions: 5 mM acetyl-CoA, 1.5 mM ATP, 5 mM MgCl2, 15 mM bicarbonate, pH 8.3, 34°C, read-out: I50
Excerpt: NaH14CO3 incorporation into acid-stable product (malonyl-CoA) on ACCase (chloroplastic acetyl coenzyme A carboxylase)

Row | SMILES | IC50 (R biotype, stated gain) | IC50 (S biotype)
1 | CC(Oc1ccc(Oc2nc3ccc(Cl)cc3o2)cc1)C(=O)O (racemic) [Fenoxaprop] | 24.2 µM | 1.58 µM
2 | C[C@@H](Oc1ccc(Oc2ccc(C#N)cc2F)cc1)C(=O)O [Cihalofop] | 70.8 µM | 10.2 µM
3 | CCCC(=NOCC)C1=C(O)CC(C2CCCSC2)CC1=O (stereo not drawn) [Cycloxidim] | 7.89 µM | 2.5 µM
4 | CC(Oc1ccc(Oc2ccc(Cl)cc2Cl)cc1)C(=O)O (stereo not drawn) [Diclofop] | 63.5 µM | 4.53 µM
5 | CCc1cc(C)cc(CC)c1-c1c(OC(=O)C(C)(C)C)n2n(c1=O)CCOCC2 [Pinoxaden] | 9.1 µM | 0.39 µM
6 | CCCC(=NOCC)C1=C(O)CC(CC(C)SCC)CC1=O (stereo not drawn) [Setoxidim] | 3500 µM | 800 µM
